Data published in the supplement of paper PMC10307832.

Assays:
Assay in all cases: relative viability (nuclei count vs DMSO), 5 days (fraction); higher = more cells survive
Vemurafenib + Navitoclax = compound: CCCS(=O)(=O)Nc1ccc(F)c(C(=O)c2c[nH]c3ncc(-c4ccc(Cl)cc4)cc23)c1F [Vemurafenib] + CC1(C)CCC(c2ccc(Cl)cc2)=C(CN2CCN(c3ccc(C(=O)NS(=O)(=O)c4ccc(N[C@H](CCN5CCOCC5)CSc5ccccc5)c(S(=O)(=O)C(F)(F)F)c4)cc3)CC2)C1 [Navitoclax] (partner 0.5 µM)
In short: (§1)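 Lung cancer cell lines, seeded in 1536-well plates, were treated the following day by pin tool with a single drug or with five library-drug doses (not always all listed) in √10 steps on top of a fixed anchor-drug dose. Cells were fixed and nuclei stained in one step after 5 days, and nuclei were counted. Relative viability is the nuclei count for treated wells divided by that for vehicle wells, reported as medians of duplicate plates.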

Vemurafenib + Luminespib = compound: CCCS(=O)(=O)Nc1ccc(F)c(C(=O)c2c[nH]c3ncc(-c4ccc(Cl)cc4)cc23)c1F [Vemurafenib] + CCNC(=O)c1noc(-c2cc(C(C)C)c(O)cc2O)c1-c1ccc(CN2CCOCC2)cc1 [Luminespib] (partner 0.01 µM)
In short: as §1

OSI-027 + Phenformin = compound: COc1cccc2cc(-c3nc([C@H]4CC[C@H](C(=O)O)CC4)n4ncnc(N)c34)[nH]c12 [OSI-027] + N=C(N)NC(=N)NCCc1ccccc1 [Phenformin] (partner 250 µM)
In short: as §1

OSI-027 + Navitoclax = compound: COc1cccc2cc(-c3nc([C@H]4CC[C@H](C(=O)O)CC4)n4ncnc(N)c34)[nH]c12 [OSI-027] + CC1(C)CCC(c2ccc(Cl)cc2)=C(CN2CCN(c3ccc(C(=O)NS(=O)(=O)c4ccc(N[C@H](CCN5CCOCC5)CSc5ccccc5)c(S(=O)(=O)C(F)(F)F)c4)cc3)CC2)C1 [Navitoclax] (partner 0.5 µM)
In short: as §1

UMC-11
relative viability (Vemurafenib + Navitoclax; first compound 0.03162 µM): 0.336
relative viability (Vemurafenib + Navitoclax; first compound 0.1 µM): 0.327
relative viability (Vemurafenib + Navitoclax; first compound 0.3162 µM): 0.374
relative viability (Vemurafenib + Navitoclax; first compound 1 µM): 0.319
relative viability (Vemurafenib + Luminespib; first compound 0.03162 µM): 0.916
relative viability (Vemurafenib + Luminespib; first compound 0.1 µM): 0.991
relative viability (Vemurafenib + Luminespib; first compound 0.3162 µM): 0.984
relative viability (Vemurafenib + Luminespib; first compound 1 µM): 0.941
relative viability (OSI-027 + Phenformin; first compound 0.01 µM): 0.337
relative viability (OSI-027 + Phenformin; first compound 0.03162 µM): 0.366
relative viability (OSI-027 + Phenformin; first compound 0.1 µM): 0.311
relative viability (OSI-027 + Phenformin; first compound 0.3162 µM): 0.311
relative viability (OSI-027 + Phenformin; first compound 1 µM): 0.274
relative viability (OSI-027 + Navitoclax; first compound 0.01 µM): 0.317
relative viability (OSI-027 + Navitoclax; first compound 0.03162 µM): 0.29
relative viability (OSI-027 + Navitoclax; first compound 0.1 µM): 0.29
relative viability (OSI-027 + Navitoclax; first compound 0.3162 µM): 0.257
relative viability (OSI-027 + Navitoclax; first compound 1 µM): 0.216
